Molecular target: T1, Recombinant human cathepsin A (Homo sapiens, UniProt P10619)
T1 construct: Recombinant human cathepsin A (residues 29-480, with a C-terminal 10-His tag); 10-His (C); purchased R&D Systems 1049-SE
T1 sequence (P10619 29-326 limits assumed): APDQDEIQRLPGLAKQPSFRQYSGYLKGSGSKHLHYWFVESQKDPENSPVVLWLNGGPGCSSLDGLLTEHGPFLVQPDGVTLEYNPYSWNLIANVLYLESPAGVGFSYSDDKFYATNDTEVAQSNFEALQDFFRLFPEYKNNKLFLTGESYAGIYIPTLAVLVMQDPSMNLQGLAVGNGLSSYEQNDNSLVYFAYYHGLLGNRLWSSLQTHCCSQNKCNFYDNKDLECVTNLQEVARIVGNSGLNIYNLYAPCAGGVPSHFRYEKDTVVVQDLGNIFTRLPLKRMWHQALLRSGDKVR
T1 sequence (P10619 327-480 limits assumed): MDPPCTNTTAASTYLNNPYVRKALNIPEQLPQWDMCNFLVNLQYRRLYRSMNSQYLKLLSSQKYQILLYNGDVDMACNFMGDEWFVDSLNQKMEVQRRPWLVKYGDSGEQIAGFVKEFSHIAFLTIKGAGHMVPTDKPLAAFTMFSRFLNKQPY
Assay: Cathepsin A inhibitory activity
Type: biochemical
Details: activated recombinant human cathepsin A 833 ng/ml, Bodipy FL-labeled bradykinin substrate 2 μM, pH 5.5, room temperature
Description: a) Cathepsin A Inhibitory Activity
Recombinant human cathepsin A (residues 29-480, with a C-terminal 10-His tag; R&D Systems, #1049-SE) was proteolytically activated with recombinant human cathepsin L (R&D Systems, #952-CY). Briefly, cathepsin A was incubated at 10 μg/ml with cathepsin L at 1 μg/ml in activation buffer (25 mM 2-(morpholin-4-yl)-ethanesulfonic acid (MES), pH 6.0, containing 5 mM dithiothreitol (DTT)) for 15 min at 37° C. Cathepsin L activity was then stopped by the addition of the cysteine protease inhibitor E-64 (N-(trans-epoxysuccinyl)-L-leucine-4-guanidinobutylamide; Sigma-Aldrich, # E3132; dissolved in activation buffer/DMSO) to a final concentration of 10 μM.
The activated cathepsin A was diluted in assay buffer (25 mM MES, pH 5.5, containing 5 mM DTT) and mixed with the test compound (dissolved in assay buffer containing (v/v) 3% DMSO) or, in the control experiments, with the vehicle in a multiple assay plate. After incubation for 15 min at room temperature, as substrate then bradykinin carrying an N-terminal ®Bodipy FL (4,4-difluoro-5,7-dimethyl-4-bora-3a,4a-diaza-s-indacene-3-propionyl) label (JPT Peptide Technologies GmbH; dissolved in assay buffer) was added to the mixture. The final concentration of cathepsin A was 833 ng/ml and the final concentration of labeled bradykinin 2 μM. After incubation for 15 min at room temperature the reaction was stopped by the addition of stop buffer (130 mM 2-(4-(2-hydroxy-ethyl)-piperazin-1-yl)-ethanesulfonic acid, pH 7.4, containing (v/v) 0.013% ®Triton X-100, 0.13% Coating Reagent 3 (Caliper Life Sciences), 6.5% DMSO and 20 μM ebelactone B (Sigma, # E0886)).
Uncleaved substrate and product were then separated by a microfluidic capillary electrophoresis on a LabChip® 3000 Drug Discovery System (12-Sipper-Chip; Caliper Life Sciences) and quantified by determination of the respective peak areas. Substrate turnover was calculated by dividing product peak area by the sum of substrate and product peak areas, and the enzyme activity and the inhibitory effect of the test compound thus quantified. From the percentage of inhibition of cathepsin A activity observed with the test compound at several concentrations, the inhibitory concentration IC50, i.e. the concentration which effects 50% inhibition of enzyme activity was, calculated.

## Cc1ccccc1-c1nc(C(=O)N[C@@H](CC(=O)O)c2ccccc2C(F)(F)F)cs1 [Example 61, (S)-3-[(2-o-Tolyl-thiazole-4-carbonyl)-amino]-3-(2-trifluoromethyl-phenyl)-propionic acid]
  IC50: 670 nM

## O=C(O)C[C@H](NC(=O)c1csc(-c2ccccc2)n1)c1ccccc1C(F)(F)F [Example 62, (S)-3-[(2-Phenyl-thiazole-4-carbonyl)-amino]-3-(2-trifluoromethyl-phenyl)-propionic acid]
  IC50: 2630 nM

## Cc1ccccc1[C@H](CC(=O)O)NC(=O)c1csc(-c2ccccc2)n1 [Example 63, (S)-3-[(2-Phenyl-thiazole-4-carbonyl)-amino]-3-o-tolyl-propionic acid]
  IC50: 61 nM

## COc1cccc([C@H](CC(=O)O)NC(=O)c2csc(-c3cccc(Cl)c3Cl)n2)c1OC [Example 64, (S)-3-{[2-(2,3-Dichloro-phenyl)-thiazole-4-carbonyl]-amino}-3-(2,3-dimethoxy-phenyl)-propionic acid]
  IC50: 154 nM

## O=C(O)C[C@H](NC(=O)c1nc(-c2ccccc2)cs1)c1cccc(Cl)c1 [Example 65, (S)-3-(3-Chloro-phenyl)-3-[(4-phenyl-thiazole-2-carbonyl)-amino]-propionic acid]
  IC50: 917 nM

## O=C(O)C[C@H](NC(=O)c1csc(-c2cccc(Cl)c2Cl)n1)c1ccccc1C(F)(F)F [Example 66, (S)-3-{[2-(2,3-Dichloro-phenyl)-thiazole-4-carbonyl]-amino}-3-(2-trifluoromethyl-phenyl)-propionic acid]
  IC50: 619 nM

## O=C(O)C[C@H](NC(=O)c1csc(-c2cccc(Cl)c2Cl)n1)c1cccc(F)c1 [Example 67, (S)-3-{[2-(2,3-Dichloro-phenyl)-thiazole-4-carbonyl]-amino}-3-(3-fluoro-phenyl)-propionic acid]
  IC50: 254 nM

## O=C(O)CC(NC(=O)c1nc(-c2ccccc2)cs1)c1ccccc1Cl (stereo not drawn) [Example 68, 3-(2-Chloro-phenyl)-3-[(4-phenyl-thiazole-2-carbonyl)-amino]-propionic acid]
  IC50: 455 nM

## O=C(O)C[C@H](NC(=O)c1nc(-c2ccccc2)cs1)c1ccc(Cl)cc1 [Example 69, (S)-3-(4-Chloro-phenyl)-3-[(4-phenyl-thiazole-2-carbonyl)-amino]-propionic acid]
  IC50: 627 nM

## Cc1ccc(-c2nc(C)c(C(=O)N[C@@H](CC(=O)O)c3ccccc3C)s2)cc1 [Example 70, (S)-3-[(4-Methyl-2-p-tolyl-thiazole-5-carbonyl)-amino]-3-o-tolyl-propionic acid]
  IC50: > 10000 nM

## Cc1ccccc1[C@H](CC(=O)O)NC(=O)c1csc(-c2cccc(Cl)c2Cl)n1 [Example 71, (S)-3-{[2-(2,3-Dichloro-phenyl)-thiazole-4-carbonyl]-amino}-3-o-tolyl-propionic acid]
  IC50: 126 nM

## Cc1ccccc1-c1nc(C(=O)N[C@@H](Cc2ccc(Cl)cc2)C(=O)O)cs1 [Example 72, (S)-3-(4-Chloro-phenyl)-2-[(2-o-tolyl-thiazole-4-carbonyl)-amino]-propionic acid]
  IC50: 16600 nM

## O=C(O)C[C@H](NC(=O)c1csc(-c2ccccc2Cl)n1)c1cccc(Cl)c1Cl [Example 73, (S)-3-{[2-(2-Chloro-phenyl)-thiazole-4-carbonyl]-amino}-3-(2,3-dichloro-phenyl)-propionic acid]
  IC50: 70 nM

## COc1cccc([C@H](CC(=O)O)NC(=O)c2csc(-c3ccccc3Cl)n2)c1OC [Example 74, (S)-3-{[2-(2-Chloro-phenyl)-thiazole-4-carbonyl]-amino}-3-(2,3-dimethoxy-phenyl)-propionic acid]
  IC50: 111 nM

## O=C(O)C[C@H](NC(=O)c1csc(-c2ccccc2Cl)n1)c1ccc(Cl)cc1Cl [Example 75, (S)-3-{[2-(2-Chloro-phenyl)-thiazole-4-carbonyl]-amino}-3-(2,4-dichloro-phenyl)-propionic acid]
  IC50: 288 nM

## O=C(O)C[C@H](NC(=O)c1csc(-c2ccccc2Cl)n1)c1ccccc1F [Example 76, (S)-3-{[2-(2-Chloro-phenyl)-thiazole-4-carbonyl]-amino}-3-(2-fluoro-phenyl)-propionic acid]
  IC50: 658 nM

## O=C(O)C[C@H](NC(=O)c1csc(-c2ccccc2Cl)n1)c1ccccc1C(F)(F)F [Example 77, (S)-3-{[2-(2-Chloro-phenyl)-thiazole-4-carbonyl]-amino}-3-(2-trifluoromethyl-phenyl)-propionic acid]
  IC50: 712 nM

## O=C(O)C[C@H](NC(=O)c1csc(-c2ccccc2Cl)n1)c1cccc(F)c1 [Example 78, (S)-3-{[2-(2-Chloro-phenyl)-thiazole-4-carbonyl]-amino}-3-(3-fluoro-phenyl)-propionic acid]
  IC50: 257 nM

## COc1cccc([C@H](CC(=O)O)NC(=O)c2csc(-c3ccccc3Cl)n2)c1 [Example 79, (S)-3-{[2-(2-Chloro-phenyl)-thiazole-4-carbonyl]-amino}-3-(3-methoxy-phenyl)-propionic acid]
  IC50: 705 nM

## O=C(O)C[C@H](NC(=O)c1csc(-c2ccccc2Cl)n1)c1ccc(F)cc1 [Example 80, (S)-3-{[2-(2-Chloro-phenyl)-thiazole-4-carbonyl]-amino}-3-(4-fluoro-phenyl)-propionic acid]
  IC50: 148 nM

## O=C(N[C@@H](Cc1ccc(Cl)cc1)C(=O)O)c1csc(-c2ccccc2Cl)n1 [Example 81, (S)-3-(4-Chloro-phenyl)-2-{[2-(2-chloro-phenyl)-thiazole-4-carbonyl]-amino}-propionic acid]
  IC50: > 10000 nM

## Cc1ccccc1[C@H](CC(=O)O)NC(=O)c1csc(-c2ccccc2Cl)n1 [Example 82, (S)-3-{[2-(2-Chloro-phenyl)-thiazole-4-carbonyl]-amino}-3-o-tolyl-propionic acid]
  IC50: 30 nM

## O=C(O)C[C@H](NC(=O)c1csc(-c2ccccc2Cl)n1)c1ccccc1 [Example 83, (S)-3-{[2-(2-Chloro-phenyl)-thiazole-4-carbonyl]-amino}-3-phenyl-propionic acid]
  IC50: 186 nM

## O=C(O)C[C@H](NC(=O)c1csc(-c2ccccc2F)n1)c1ccccc1C(F)(F)F [Example 84, (S)-3-{[2-(2-Fluoro-phenyl)-thiazole-4-carbonyl]-amino}-3-(2-trifluoromethyl-phenyl)-propionic acid]
  IC50: 1350 nM

## COc1cccc([C@H](CC(=O)O)NC(=O)c2csc(-c3ccccc3F)n2)c1 [Example 85, (S)-3-{[2-(2-Fluoro-phenyl)-thiazole-4-carbonyl]-amino}-3-(3-methoxy-phenyl)-propionic acid]
  IC50: 878 nM

## COc1ccc([C@H](CC(=O)O)NC(=O)c2csc(-c3ccccc3F)n2)cc1 [Example 86, (S)-3-{[2-(2-Fluoro-phenyl)-thiazole-4-carbonyl]-amino}-3-(4-methoxy-phenyl)-propionic acid]
  IC50: 975 nM

## Cc1ccccc1[C@H](CC(=O)O)NC(=O)c1csc(-c2ccccc2F)n1 [Example 87, (S)-3-{[2-(2-Fluoro-phenyl)-thiazole-4-carbonyl]-amino}-3-o-tolyl-propionic acid]
  IC50: 117 nM

## O=C(O)C[C@H](NC(=O)c1csc(-c2ccccc2F)n1)c1ccccc1 [Example 88, (S)-3-{[2-(2-Fluoro-phenyl)-thiazole-4-carbonyl]-amino}-3-phenyl-propionic acid]
  IC50: 923 nM

## O=C(O)C[C@H](NC(=O)c1csc(-c2cccc(Cl)c2)n1)c1cccc(Cl)c1Cl [Example 89, (S)-3-{[2-(3-Chloro-phenyl)-thiazole-4-carbonyl]-amino}-3-(2,3-dichloro-phenyl)-propionic acid]
  IC50: 1020 nM

## COc1cccc([C@H](CC(=O)O)NC(=O)c2csc(-c3cccc(Cl)c3)n2)c1OC [Example 90, (S)-3-{[2-(3-Chloro-phenyl)-thiazole-4-carbonyl]-amino}-3-(2,3-dimethoxy-phenyl)-propionic acid]
  IC50: 1370 nM

From US9174952B2, “Substituted 3-thiazoloamino-propionic acid derivatives and their use as pharmaceuticals” (SANOFI, priority 2011, dated 2015)
